How the values were obtained:
[1] = [M+H]+; instrument: TW
[2] = instrument: TW, calibrated with phosphatidylcholines (ESI+) and phosphatidylethanolamines (ESI-)
[3] = instrument: DT, single field, calibrated with Agilent tune mix (Agilent)

C[C@]12C=CC3=C4CCC(=O)C=C4CC[C@H]3[C@@H]1CC[C@@H]2O [17B-Trenbolone]
collision cross section (N2) [1]: 163.3 Å²

C[C@]12CC[C@H]3[C@@H](CCC4=CC(=O)CC[C@H]43)[C@@H]1CC[C@H]2O [17a-Nortestosterone]
collision cross section (N2) [1]: 165.7 Å²

CC12C=CC3=C4CCC(=O)C=C4CCC3C1CCC2O (stereo unspecified) [17a-Trenbolone]
collision cross section (N2) [1]: 163.3 Å²

CNC(=O)ON=CC(C)(C)S(C)=O (stereo unspecified) [Aldicarb sulfoxide]
collision cross section (N2) [1]: 145.4 Å²

CO/C=C(/C(=O)OC)c1ccccc1Oc1cc(Oc2ccccc2C#N)ncn1 [Azoxystrobin]
collision cross section (N2) [1]: 195.75 Å²

CC(C)(C)NCC(O)c1cc(Cl)c(N)c(Br)c1 (stereo unspecified) [Bromchlorbuterol]
collision cross section (N2) [1]: 165.2 Å²

C=CCOC(=O)C(C)(C)OC(=O)c1cc(-n2c(=O)cc(C(F)(F)F)n(C)c2=O)ccc1Cl [Butafenacil]
collision cross section (N2) [1]: 208.59 Å²

CC(C)NCC(O)COc1cccc2[nH]c3ccccc3c12 (stereo unspecified) [Carazolol]
collision cross section (N2) [1]: 165.5 Å²

COC(=O)Nc1nc2ccccc2[nH]1 [Carbendazim]
collision cross section (N2) [1]: 134.94 Å²

CON(C)C(=O)Nc1ccc(Br)c(Cl)c1 [Chlorbromuron]
collision cross section (N2) [1]: 152.25 Å²

COc1nc(C)nc(NC(=O)NS(=O)(=O)c2ccccc2Cl)n1 [Chlorsulfuron]
collision cross section (N2) [1]: 175.29 Å²

CC(C)NCC(O)c1ccc(N)c(C#N)c1 (stereo unspecified) [Cimaterol]
collision cross section (N2) [1]: 155.4 Å²

CCC(C)(C)NCC(O)c1cc(Cl)c(N)c(Cl)c1 (stereo unspecified) [Clenpenterol]
collision cross section (N2) [1]: 165 Å²

Clc1ccccc1-c1nnc(-c2ccccc2Cl)nn1 [Clofentezine]
collision cross section (N2) [1]: 161.9 Å²

Cc1cc(C2CC2)nc(Nc2ccccc2)n1 [Cyprodinil]
collision cross section (N2) [1]: 152.07 Å²

CCCCCCCCCCCCCC(=O)OC[C@@H](O)COP(=O)([O-])OCC[N+](C)(C)C [LPC(14:0)]
collision cross section (N2) ([2]; [M+H]+): 220.8 Å²
collision cross section (N2) ([3]; [M+HCOO]-): 227 Å²

CCCCCCCCCCCCCCCC(=O)O[C@H](CO)COP(=O)(O)OCCN [LPE(16:0)]
collision cross section (N2) ([2]; [M+H]+): 213.4 Å²
collision cross section (N2) ([2]; [M+Na]+): 218.8 Å²
collision cross section (N2) ([2]; [M-H]-): 206 Å²
collision cross section (N2) ([3]; [M+H]+): 213.7 Å²
collision cross section (N2) ([3]; [M+Na]+): 219.9 Å²
collision cross section (N2) ([3]; [M-H]-): 207.1 Å²

CCCC/C=C\C/C=C\CCCCCCCC(=O)O[C@H](COC(=O)CCCCCCC/C=C\CCCCCCCCC)COP(=O)(O)O [PA(36:3)]
collision cross section (N2) ([2]; [M-H]-): 257.9 Å²
collision cross section (N2) ([3]; [M+NH4]+): 270.8 Å²

CCCCC/C=C\C/C=C\C/C=C\C/C=C\CCCCCC(=O)O[C@H](COC(=O)CCCCCCCCCCCCC)COP(=O)(O)O [PA(36:4)]
collision cross section (N2) ([2]; [M-H]-): 257.1 Å²
collision cross section (N2) ([3]; [M+NH4]+): 272.4 Å²
collision cross section (N2) ([3]; [M-H]-): 258.1 Å²

CCCCC/C=C\C/C=C\C/C=C\CCCCC(=O)O[C@H](COC(=O)CCCCCCCCC/C=C\CCCCCCCC)COP(=O)(O)O [PA(38:4)]
collision cross section (N2) ([2]; [M-H]-): 263.4 Å²
collision cross section (N2) ([3]; [M+NH4]+): 279.1 Å²
collision cross section (N2) ([3]; [M-H]-): 264.3 Å²

CCCCC/C=C\C/C=C\C/C=C\C/C=C\C/C=C\CCC(=O)O[C@H](COC(=O)CCCCCCCCCCCCC)COP(=O)([O-])OCC[N+](C)(C)C [PC(36:5)]
collision cross section (N2) ([2]; [M+H]+): 284.1 Å²
collision cross section (N2) ([3]; [M+H]+): 284.5 Å²

CCCCC/C=C\C/C=C\CCCCCCCCCC(=O)O[C@H](COC(=O)CCCCCCCCC/C=C\CCCCCC)COP(=O)([O-])OCC[N+](C)(C)C [PC(38:3)]
collision cross section (N2) ([2]; [M+CH3COO]-): 296.7 Å²
collision cross section (N2) ([2]; [M+H]+): 291.9 Å²
collision cross section (N2) ([3]; [M+H]+): 295 Å²

CCCCC/C=C\C/C=C\C/C=C\CCCCC(=O)OC[C@H](COP(=O)([O-])OCC[N+](C)(C)C)OC(=O)CCCCCCCCC/C=C\C/C=C\CCCCC [PC(38:5)]
collision cross section (N2) ([2]; [M+CH3COO]-): 295.4 Å²
collision cross section (N2) ([2]; [M+H]+): 289.7 Å²
collision cross section (N2) ([3]; [M+HCOO]-): 293 Å²
collision cross section (N2) ([3]; [M+H]+): 292.9 Å²
collision cross section (N2) ([3]; [M+Na]+): 296.8 Å²

CC/C=C\C/C=C\C/C=C\C/C=C\CCCCC(=O)O[C@H](COC(=O)CCCCCC/C=C\C/C=C\C/C=C\CCCCC)COP(=O)([O-])OCC[N+](C)(C)C [PC(38:7)]
collision cross section (N2) ([2]; [M+H]+): 286.5 Å²
collision cross section (N2) ([3]; [M+H]+): 288.2 Å²

CCCCC/C=C\C/C=C\C/C=C\C/C=C\CCCCCC(=O)O[C@H](COC(=O)CCCCCCC/C=C\CCCCCCCC)COP(=O)([O-])OCC[N+](C)(C)C [PC(40:5)]
collision cross section (N2) ([2]; [M+H]+): 295.5 Å²
collision cross section (N2) ([3]; [M+H]+): 298.8 Å²
collision cross section (N2) ([3]; [M+Na]+): 302 Å²
